experiment: gradient 5% acetonitrile 3 min, to 50% in 2 min, to 85% in 15 min, held 3 min, 100 µL/min; details: column: Zorbax Extend-C18 2.1 x 50 mm; eluents: water / acetonitrile, 0.1% formic acid
Method in brief: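 Retention time was recorded from adduct peaks, which were picked computationally and each inspected manually. Pure standards ran in mixtures of ~100 molecules on HPLC coupled to a quadrupole time-of-flight mass spectrometer, in positive and negative ionization mode, through a Zorbax Extend-C18 column (2.1 × 50 mm, 1.8 μm) at 100 μL/min. Eluents were water and acetonitrile, each with 0.1% formic acid.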

RP-LC retention time	Structure (SMILES)
766 s	O=C1COc2ccccc2N1Cc1nc(-c2ccc3c(c2)ncn3C2CCCC2)no1
945 s	Cc1ccc2c(c1)N(S(C)(=O)=O)CCC(C(=O)Nc1cccc(C)c1C)O2 (centres undefined)
685 s	O=C(c1cccs1)N1CCC(c2noc(-c3ccncc3)n2)C1 (centres undefined)
762 s	COc1cccc(C(=O)N2CCC3(CC2)NC(=O)c2cc(F)ccc2N3C)c1
555 s	O=C(Nc1nccs1)C1CCN(C(=O)c2ccccn2)CC1
556 s	CCOC(=O)C1CCCN(CC(O)COc2ccccc2C(C)=O)C1 (centres undefined)
786 s	Cc1ccccc1NC(=O)N1C[C@@H]2CN(S(=O)(=O)c3ccc(F)cc3)C[C@H](C1)O2
636 s	CS(=O)(=O)N1CCC(C(=O)Nc2nnc(-c3ccc(F)cc3)o2)CC1
929 s	O=C(COc1ccccc1)OCc1nc2ccccc2s1
758 s	Cc1nsc2ncc(C(=O)N3CCOCC3)c(N3CCC(C(=O)Nc4ccccc4F)CC3)c12
766 s	CCCCc1nnc(NC(=O)C2CC(=O)N(CCc3c[nH]c4ccc(OC)cc34)C2)s1 (centres undefined)
1320 s	CCCOc1nc2ccccc2nc1N1CCCC(C(=O)Nc2ccccc2OC)C1 (centres undefined)
738 s	Cc1ccc(-c2ccc(N3CCCC(C(=O)NC4CCCC4)C3)nn2)cc1C (centres undefined)
739 s	CCOc1ccc(-c2nc3ncccn3c2NCc2ccccc2OC)cc1OC
759 s	O=C(NCc1ccc(F)cc1)C1CCCN(C(=O)C2Sc3ccccc3NC2=O)C1 (centres undefined)
763 s	Cn1nc(-c2ccc(NC(=O)c3cccc4ccccc34)cc2)ccc1=O
975 s	CCCCN(CC)c1nc(-c2ccc([N+](=O)[O-])cc2)nc2ccccc12
604 s	Cc1nn(C)cc1CN(C)C(=O)COc1ccc(NC(=O)C2CC2)cn1
1180 s	CCOc1nc2ccccc2nc1N1CCCC(C(=O)Nc2ccc(OC)cc2OC)C1 (centres undefined)
1020 s	Cc1ccc(-c2nnc(-c3ccccc3)o2)cc1S(=O)(=O)N1CCCC1
853 s	CCn1cc(S(=O)(=O)NCc2ccccc2C)c2cccnc21
762 s	COc1cccc(CC(=O)Nc2ccc3c(c2)Sc2ncccc2C(=O)N3C)c1
1060 s	CS(=O)(=O)c1ccccc1C(=O)Nc1c2c(nn1-c1nc3ccccc3s1)CCC2

RP-LC retention time	Structure (SMILES)
1100 s	COc1ccc(S(=O)(=O)N2CC(C(=O)NC3CCCC3)Oc3cc(C)ccc32)cc1 (centres undefined)
1090 s	COc1nn(C)cc1C(=O)Nc1nc(-c2ccc3c(c2)CCCC3)cs1
958 s	COc1ccccc1N1CCN(c2cc(SCC(=O)Nc3c(C)cccc3C)ncn2)CC1
900 s	Cc1cc(C)c(NC(=O)C2CCN(S(C)(=O)=O)c3ccccc3O2)c(C)c1 (centres undefined)
760 s	CCc1ccc(NC(=O)C2CCN(C(=O)C3Sc4ccccc4NC3=O)CC2)cc1 (centres undefined)
1100 s	COc1ccc(-c2nc(Cc3noc(-c4ccccc4)n3)c(C)o2)cc1
610 s	Cc1ccc2c(Nc3ccc(C)c(Cl)c3)c(C(=O)N3CCOCC3)cnc2n1
748 s	COc1ccc(NC(=O)c2cn(-c3cc(N4CCCC4)ncn3)cn2)cc1OC
950 s	Cc1ccc(NC(=O)N2CCC(C(C)C(=O)Nc3ccc(C)cc3Cl)CC2)cc1 (centres undefined)
749 s	CCN1c2ccccc2C(=O)NC12CCN(C(=O)c1ccccc1F)CC2
1070 s	COc1cccc(NC(=O)c2cc(C(C)C)n3nccc3n2)c1
703 s	O=C(COc1cccc2ccc(N3CCOCC3)nc12)Nc1ccc(OC(F)(F)F)cc1
642 s	CCn1ccc(-c2nc(-c3ccc4c(c3)ncn4CCC(=O)N3CCCC3)no2)n1
650 s	O=C(C1CC(=O)N(c2ccc(F)cc2)C1)N1CC(c2nc(-c3ccccn3)no2)C1 (centres undefined)
1240 s	O=c1c2cc3c(cc2nc(SCc2nc(-c4ccccc4)no2)n1Cc1ccccc1)OCO3
788 s	CC(C)c1ccc(OCC(O)Cn2c(C3CC3)nc3ccccc32)cc1 (centres undefined)
700 s	COc1ccc(CCNC(=O)Cn2nc3c(Oc4ccccc4)nccn3c2=O)cc1OC
764 s	COc1cccc(CC(=O)N2C[C@@H]3C[C@H]2C[C@@H]3NS(=O)(=O)c2ccccc2)c1
716 s	O=C(Nc1ccc2c(c1)CCCN2C(=O)C1CC1)c1ccccc1[N+](=O)[O-]
769 s	COc1ccc(C2Cn3nnc(C(=O)N4CCC(C(=O)NC5CCCC5)CC4)c3CO2)cc1 (centres undefined)
960 s	COCC(=O)N(CC(=O)N1CCc2sccc2C1COc1ccc(Cl)c(C)c1)C1CC1 (centres undefined)
689 s	COc1ccc(OC)c(S(=O)(=O)N2CCCC(C(=O)Nc3ccc(C(N)=O)cc3)C2)c1 (centres undefined)
802 s	COc1ccc(CCNC(=O)CCc2nnc3c4cc(-c5ccc(C)c(C)c5)nn4ccn23)cc1OC

The next lines start with the molecule.

Structure (SMILES)	RP-LC retention time
Cc1ccc2oc(C(=O)Nc3nccs3)c(C)c2c1	942 s
O=C(NCc1ccnc(N2CCCCCC2)c1)Nc1ccc2c(c1)OCO2	622 s
Cc1cc(F)ccc1NC(=O)C1CCN(S(=O)(=O)c2cc(C(=O)N3CCOCC3)cs2)CC1	759 s
CCn1cnc(S(=O)(=O)N2CCC(C(=O)N3CCN(c4ccc(F)cc4)CC3)CC2)c1	762 s
C=CCNS(=O)(=O)c1c(C)[nH]c(=O)[nH]c1=O	582 s
CN(C)c1ccc(-c2nc3ccc(Cl)cn3c2Nc2ccc3c(c2)OCO3)cc1	764 s
CCCn1ccc2oc(C)c(C(=O)NC(C)c3ccc(F)cc3)c2c1=O (centres undefined)	1040 s
O=C(NCc1cccnc1-c1ccc(F)cc1)c1cccs1	894 s
O=c1ccc(S(=O)(=O)N2CCOCC2)cn1Cc1cccc(F)c1	755 s
CCc1noc(NC(C)=O)c1-c1ccc(C)c(S(=O)(=O)Nc2cc(OC)cc(OC)c2)c1	854 s
Cc1ccc(NS(=O)(=O)c2cc(-c3cc(C(F)(F)F)on3)sc2C)c(Cl)c1	1220 s
COc1ccc(N2CCN(C(=O)C3CCN(S(=O)(=O)c4cn(C(C)C)cn4)CC3)CC2)cc1	706 s
CC1=CC(C)(C)N=C2SC(c3ccc(N)cc3)=NN12	635 s
O=C(c1cccn1-c1nnc(N2CCCC2)s1)N1CCN(c2ccccn2)CC1	598 s
COCCN(Cc1ccncc1)C(=O)c1ccc2nsnc2c1	544 s
CC(=O)N1CCc2cc(N3CC(C(=O)NCC(C)C)CC3=O)ccc21 (centres undefined)	643 s
CC(=O)Nc1nsc(N2CCC(C(=O)NCc3cccs3)CC2)n1	610 s
CN1CCC(N2CCN(S(=O)(=O)c3ccccc3C(F)(F)F)CC2)C1=O (centres undefined)	594 s
O=C1NC(C(=O)NCC2CC2)Cn2cccc21 (centres undefined)	602 s
O=C(Nc1ccc(F)c(Cl)c1)c1sc2ncccc2c1-n1cccc1	1170 s
CC1(C(=O)NC2CCCCCCC2)CN(S(C)(=O)=O)CC(=O)N1c1ccc(F)cc1F (centres undefined)	952 s
CNC(=O)c1c(NC(=O)c2cccc(Cl)c2)sc2c1CCC2	1160 s

Structure (SMILES)	RP-LC retention time
O=S(=O)(Cc1ccccc1)N1CCC2(CCCCO2)CC1	868 s
COCC1(O)CCOC2(CCN(Cc3ccc(F)cc3)CC2)C1 (centres undefined)	654 s
CCOc1ccc(-c2noc(CN3N=NC4C(=O)N(c5cccc(OC)c5)C(=O)C43)n2)cc1OC (centres undefined)	917 s
CN(CC1CCOC1)C(=O)Nc1ccc(Cl)cc1F (centres undefined)	728 s
CC(=O)Nc1ccc(S(=O)(=O)N2CCC(CN3CCCCCC3)CC2)cc1	588 s
Cc1ccc(-c2ccc(CNc3ncn[nH]3)o2)cc1Cl	731 s
Cc1sc(-c2noc(C3CC3)n2)cc1S(=O)(=O)N1CCC(C(=O)N2CCCCCC2)CC1	1050 s
COc1ccc2nc(NCCn3cccn3)sc2c1	599 s
Cc1sc(-c2nnc(C(C)C)o2)cc1NC(=O)C1CCC1	892 s
CCC1CN(C(=O)N2CCC(C(=O)NCCN3CCCC3)CC2)c2ccccc2O1 (centres undefined)	620 s
CC(C)c1ccc(S(=O)(=O)NCc2ccsc2)cc1	954 s
CCCN1C(=O)C2CCC(=O)N2c2ccc(C(=O)NCCCN3CCCC3=O)cc21 (centres undefined)	631 s
CC(C)n1cnc2cc(CNC(=O)c3nn(C)c4ccccc34)ccc21	629 s
CCC(=O)N1CCc2cc(S(=O)(=O)CCC(=O)N3CCN(c4ccc(C)cc4)C(C)C3)ccc21 (centres undefined)	704 s
Cc1nc(C)c(C(=O)Nc2nc(-c3ccc(Br)cc3)c(C)s2)s1	1100 s
COc1cc(-c2noc(CCn3nc(-c4ccc(Cl)cc4)ccc3=O)n2)cc(OC)c1OC	974 s
O=C(c1cn[nH]c1)N1CCCC1Cc1noc(C2CCCC2)n1 (centres undefined)	692 s
COc1cccc(-c2nc3ccc(Cl)cn3c2Nc2ccc(Cl)cc2)c1	873 s
COc1cc2c(c(OC)c1O)C(=O)CO2	642 s
CCC(=O)NCC12CCC=C1N(C)C(=O)CC2 (centres undefined)	616 s
CCCC(=O)N1C[C@@H]2CCCN3CCC[C@@H]([C@H]23)[C@H]1CCCC(=O)NCC1CC1	587 s
